Tested on: L1210/0 cells
Test: L1210/0 cell proliferation ([3H]-thymidine incorporation)
Assay type: cell-based, Murine
Method: Murine lymphocytic leukemia cell lines, L1210/CPA and L1210/0 (als. known as Le/CPA and Le/0) were kindly provided by Dr. F. Struck, Southern Research Institute, Birmingham, AL. Cells were grown in RPMI-1640, supplemented with 10% horse serum, 100 units/ml penicillin and 100 µg/ml streptomycin. The cultures were incubated at 37°C in a humidified atmosphere with 5% CO₂ in air. Bone marrow cells were flushed from femurs of mice with RPMI-1640, using a tuberculin syringe fitted with a 25 gauge meedle. For spleen cells, spleens were removed and passed through a fine wire mesh to get a single homogenous cell suspension. In either case, cells were centrifuged, washed twice and resuspended in the drug exposure medium (see below). Cell viability was determined by trypan blue exclusion and the cell suspension was diluted to the desired concentration.
Murine leukemic cells and bone marrow/spleen cells were treated with SDA (1 x 10^-6 M to 5 x 10⁻⁵ M) in RPMI-1640 or PBS based solution. Wherever mentioned, cells were pretreated with DEAB (10-30 µM) for 30-60 min at 37°C and then exposed to SDA.
For [³H]-thymidine incorporation, drug or vehicle treated bone marrow or spleen cells were plated in RPMI-1640, containing 10% fetal bovine serum, 10 µM β-mercaptoethanol, 25 mM HEPES and 2 mM glutamine. Con-A (4 µg/ml and […]) was used as mitogens for bone marrow and spleen cells. Three days later, [³H]-thymidine (0.2 µCi/well) was added and cells were harvested after 12-18 hrs. L1210/CPA and L1210/0 cells (0.1 - 1 x 10⁵ cells/well were plated in RPMI-1640 containing 10% horse serum. [³H]-thymidine was added after 24 hrs and cells were filtered on GF/B filter paper for scintillation counting.

With `O=CCCNCCCCNCCC=O` [SDA, NN′-Bis-(3-propionaldehyde)-1-4-diaminobutane] the “effect of DEAB pretreatment on cytotoxicity of SDA” value (DEAB (20 µM) pretreatment) was “little or no effect”, the IC50 (Mus musculus, L1210/0, [³H]-thymidine incorporation, read-out: mean IC₅₀) was 4.66 µM and the “sensitivity of L1210/0 cells relative to L1210/CPA cells” value (proliferation assays) was 2 fold.

Source: patent EP0366451A2, “The use of oxidized polyamines, especially NN'-Bis-(3-propionaldehyde)-1-4-diaminobutane (sperminedialdehyde) as immunosuppressive agents” (ORTHO PHARMACEUTICAL CORPORATION, priority 1988, dated 1990)
